# Experimental data reported in US8222420B2, “Nitrogen-containing compounds and harmful organism control agents” (Nippon Soda Co., Ltd., priority 2009, dated 2012).
# What was measured:
# [1] = test system: Tetranychus urticae resistant to organic phosphorous agents; experiment: Efficacy against Tetranychus urticae (spray on kidney bean plants); assay type: in vivo; details: 500 ppm wettable powder sprayed on kidney bean plants with female adults; 25° C., humidity 65%; 3 days later
# Source text: After inoculating the first true leaves of kidney bean plants planted in a no. 3 pot for which 7 to 10 days had elapsed since germination with 17 female adult Tetranychus urticae resistant to organic phosphorous agents, a chemical liquid diluted with water to a compound concentration of 500 ppm was sprayed onto the kidney bean plants in accordance with the formula of the wettable powder indicated in the aforementioned Preparation Example 1. The kidney bean plants were placed in a constant temperature chamber at a temperature of 25° C. and humidity of 65% and insect mortality rate was investigated 3 days later. The test was repeated twice.
# [2] = test system: Aphis gossypii; experiment: Efficacy against Aphis gossypii (spray on infested cucumber plants); assay type: in vivo; details: 500 ppm emulsion sprayed on cucumber plants infested with nymphs; 25° C., humidity 65%; 5 days later
# Source text: Cucumber plants planted in a no. 3 pot for which 10 days had elapsed since germination were inoculated with adult Aphis gossypii. The adult insects were removed after 1 day, and a chemical liquid diluted with water to a compound concentration of 500 ppm was sprayed onto the cucumber plants infested with nymphs laid by the adults in accordance with the emulsion formula indicated in the aforementioned Preparation Example 2. The cucumber plants were placed in a constant temperature chamber at a temperature of 25° C. and humidity of 65% and insect viability was investigated 5 days later followed by determination of insect mortality rate. The test was repeated twice.
Compound,insect mortality rate [1],insect mortality rate [2]
Cc1cc(Cl)ccc1N=CN(C)C [chlordimeform],40%,–
Cc1nc(N(C)C)nc(OC(=O)N(C)C)c1C [pirimicarb],–,9%
